Data set [1] addresses Histone deacetylase 3 (Homo sapiens) (UniProt O15379). To be noted: at 20 µM.
Description: Inhibition of human recombinant HDAC3 at 20 uM using Boc-Lys(Ac)-AMC as substrate after 30 to 60 mins by microplate reader assay
Data set [2] concerns the target Histone deacetylase 2 (Homo sapiens) (UniProt Q92769). Particulars: at 20 µM; call rule not given here.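 Also: recombinant enzyme activity measured with the fluorogenic acetylated lysine substrate Boc-Lys(Ac)-AMC, read on a microplate reader after 30–60 min.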
Data set [3] is described as follows: Cytotoxicity against human MV411 cells assessed as growth inhibition after 24 hrs by MTS assay. The data set is classed as functional, cell-based, MV4-11. For orientation: Tetrazolium assays rely on reduction of a dye to a coloured formazan, in cell work by metabolically active cells.
Data set [4] can be described thus: Binding affinity to Zn2+ assessed as Zn2+/compound complex formation by ITC analysis. (In general: ITC needs no label: the signal is the heat of the interaction.)
The target of data set [5] is T1, Histone deacetylase (Homo sapiens) (UniProt Q13547+O15379+Q9UBN7+Q92769+Q9UQL6+Q8WUI4+Q9BY41+Q96DB2+P56524+Q9UKV0+Q969S8). Nature of the data set: Inhibition of HDAC in human MV411 cells assessed as up regulation of p21 WAF1/CIP1 expression after 4 hrs by western blot analysis. The data set is classed as cell-based. Particulars: MV4-11. In general terms: A western blot detects proteins with antibodies after separation by electrophoresis.

Data set [6] has as its target T1, Histone deacetylase (Homo sapiens). Nature of the data set: Inhibition of HDAC in human MV411 cells assessed as increase in H3K9 aceylation after 4 hrs by western blot analysis. The class given is cell-based. Particulars: MV4-11.
The nature of data set [7]: Lipophilicity, LogP of the compound. The class given is physicochemical. Particulars: octanol/water.
The mark [8] stands for this setting: Homo sapiens, MV4-11, 24 h, read-out: IC50.

Structures are written as SMILES.

For orientation: inhibition means the share of the control response that was lost under treatment. One may read the IC50 as the point on the concentration scale where inhibition reaches its midpoint. By Kd is commonly meant a measure of binding affinity in units of concentration. The logP is a log measure of how a compound divides between an organic and an aqueous phase. Low readings indicate a more hydrophilic compound, high ones a more lipophilic compound.

Sequence of Histone deacetylase 3 (Homo sapiens) (O15379 whole entry): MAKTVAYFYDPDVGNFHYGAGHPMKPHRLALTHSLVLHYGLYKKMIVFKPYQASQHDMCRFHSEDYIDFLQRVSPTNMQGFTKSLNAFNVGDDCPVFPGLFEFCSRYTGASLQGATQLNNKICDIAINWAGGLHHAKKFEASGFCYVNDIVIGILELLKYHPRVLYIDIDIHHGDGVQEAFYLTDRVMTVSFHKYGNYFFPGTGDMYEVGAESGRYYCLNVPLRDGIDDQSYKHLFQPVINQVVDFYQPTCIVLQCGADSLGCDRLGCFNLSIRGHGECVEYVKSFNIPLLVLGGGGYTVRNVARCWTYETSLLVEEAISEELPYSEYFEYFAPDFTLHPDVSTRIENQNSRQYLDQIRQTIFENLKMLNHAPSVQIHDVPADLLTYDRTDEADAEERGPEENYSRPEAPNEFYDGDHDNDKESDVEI
Sequence of Histone deacetylase 2 (Homo sapiens) (Q92769 whole entry): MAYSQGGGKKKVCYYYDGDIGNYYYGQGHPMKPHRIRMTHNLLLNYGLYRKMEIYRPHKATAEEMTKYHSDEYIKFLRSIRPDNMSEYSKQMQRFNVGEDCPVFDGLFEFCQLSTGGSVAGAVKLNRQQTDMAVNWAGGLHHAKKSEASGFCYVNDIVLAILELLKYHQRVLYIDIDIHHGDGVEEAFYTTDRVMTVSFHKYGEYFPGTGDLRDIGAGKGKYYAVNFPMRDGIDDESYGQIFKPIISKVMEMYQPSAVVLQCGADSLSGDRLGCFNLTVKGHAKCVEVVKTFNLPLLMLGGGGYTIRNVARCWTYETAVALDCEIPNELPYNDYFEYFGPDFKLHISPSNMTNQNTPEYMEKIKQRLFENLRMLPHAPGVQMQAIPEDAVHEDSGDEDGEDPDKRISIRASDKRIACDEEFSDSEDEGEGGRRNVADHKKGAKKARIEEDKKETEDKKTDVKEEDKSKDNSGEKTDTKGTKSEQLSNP

In turn, `O=C(NO)C(c1ccccc1)c1ccccc1` had an inhibition in data set [1] of 76.4%.

With `O=C(NCCCCNC(=O)C(c1ccccc1)c1ccccc1)c1coc(-c2ccccc2O)n1`, the inhibition stood at 0% in data set [2] and 4% in data set [1].

Consider `O=C(O)c1coc(-c2ccccc2O)n1`, for which the results for the inhibition in data set [2] and in data set [1] were 54.8% and 38.7%, respectively.

On to `O=C(NCC(c1ccccc1)c1ccccc1)c1coc(-c2ccccc2O)n1`, for which the inhibition in data set [2] turned out to be 34.8%; in data set [1] it was 23.7%. For the same molecule, the IC50 in data set [3] (setting [8]) was found to be 40 µM.

With `COC(=O)c1coc(-c2ccccc2O)n1`, the figures for the inhibition in data set [2] and in data set [1] were 30.1% and 39.1%, respectively.

On to `O=C(CNC(=O)c1coc(-c2ccccc2O)n1)Nc1ccccc1`, for which the inhibition in data set [2] was found to be 32%; in data set [1] it was 36.9%.

On to `O=C(NCc1cccc2ccccc12)c1coc(-c2ccccc2O)n1`, for which the inhibition in data set [2] worked out at 45.2%; in data set [1], 32.3%.

As to `O=C(NC(c1ccccc1)c1ccccc1)c1coc(-c2ccccc2O)n1`, the equilibrium dissociation constant (Kd) in data set [4] came out at 0.203 µM. Moreover, the inhibition in data set [2] was 54.1%; in data set [1] it was 37.8%; in data set [5], “Dose-dependent effect”; in data set [6], “Dose-dependent effect”. Besides, in data set [3] (setting [8]), the 50% inhibitory concentration (IC50) came to 7.5 µM. This molecule yielded a logP in data set [7] of 3.91.

Turning to `O=C(Nc1ccccc1)c1ccc(CNC(=O)c2coc(-c3ccccc3O)n2)cc1`, the inhibition in data set [2] turned out to be 41.3%; in data set [1], 15.8%.

Turning to `O=C(Nc1ccc(-c2ccccc2)cc1)c1coc(-c2ccccc2O)n1`, the figures for the inhibition in data set [2] and in data set [1] were 31.9% and 30.2%, respectively. Besides, the IC50 result in data set [3] (mv4-11) is “Not Active”.

On to `O=C(NCCCCNC(=S)NCCC(c1ccccc1)c1ccccc1)c1coc(-c2ccccc2O)n1`, for which the inhibition in data set [2] was determined as 1.3%; in data set [1], 3.7%.

On to `O=C(NCCCCN1C(=O)c2ccccc2C1=O)c1coc(-c2ccccc2O)n1`, for which the inhibition in data set [2] was determined as 25.4%; in data set [1] it was 11%.

As to `O=C(O)c1ccc(CNC(=O)c2coc(-c3ccccc3O)n2)cc1`, the inhibition is 56.5% in data set [2] and 39.7% in data set [1].

For the molecule `O=C(NCCC(c1ccccc1)c1ccccc1)c1coc(-c2ccccc2O)n1`, the inhibition is 28.7% in data set [2] and 37.5% in data set [1]. Further, the half-maximal inhibitory concentration (IC50) result in data set [3] (mv4-11) is recorded as “Not Active”.

In the case of `O=C(Nc1ccccc1)c1coc(-c2ccccc2O)n1`, the inhibition in data set [2] is 29.5%; in data set [1], 22.5%. Besides, in data set [3] (setting [8]), the IC50 was determined as 25 µM.

For the molecule `O=C(NCc1ccc(-c2ccccc2)cc1)c1coc(-c2ccccc2O)n1`, the inhibition in data set [2] came out at 52.2%; in data set [1], 40.1%. In addition, in data set [3] (setting [8]), the IC50 is more than 100 µM.

Regarding `O=C(NCCc1c[nH]c2ccccc12)c1coc(-c2ccccc2O)n1`, the inhibition was 36% in data set [2] and 18.9% in data set [1].

As for `CC(/C=C/C(=O)NO)=C\[C@@H](C)C(=O)c1ccc(N(C)C)cc1`, in data set [2], the inhibition came out at 99.2%.

As for `O=C(NCCCCNCCC(c1ccccc1)c1ccccc1)c1coc(-c2ccccc2O)n1`, the inhibition stood at 19.7% in data set [2] and 18.1% in data set [1].

For the origin of these results see ChEMBL document CHEMBL3734759, “Discovery of a new class of histone deacetylase inhibitors with a novel zinc binding group” (Medchemcomm, 2015).
